In US9663496B2, “AMPK-activating heterocyclic compounds and methods for using the same” (Rigel Pharmaceuticals, Inc., priority 2010, dated 2017) one finds EC50 data, which are given here for 31 compounds.

pEC50: −log10 of the molar value.

The target of the test is AMPK. As to the kind of experiment: AMPK activation, enzyme-linked immunosorbent assay. The test is classed as biochemical. The settings on record: EC50 for AMPK activation, ELISA. A digest of the protocol:
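Test compounds were added, and kinase activation was then detected by immunoassay following established kit procedures.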
For orientation: An ELISA detects its analyte on a solid surface through an enzyme-linked reagent.
Compound `CC(=O)c1ccc(Oc2ccc(NC(=O)c3ccc(C(=O)N4CCC(Oc5ccc(S(C)(=O)=O)cc5)CC4)nc3)cn2)cc1` [Compound 485, N-(6-(4-acetylphenoxy)pyridin-3-yl)-6-(4-(4-(methylsulfonyl)phenoxy)piperidine-1-carbonyl)nicotinamide] gave a pEC50 of over 6.30.

Regarding `O=C(Nc1ccccc1)c1ccc(C(=O)N2CCN(Cc3ccc(F)cc3)CC2)cn1` [Compound 107, 5-(4-(4-fluorobenzyl)piperazine-1-carbonyl)-N-phenylpicolinamide], the pEC50 was 5.00 to 5.30.

Compound `CS(=O)(=O)c1ccc(OC2CCN(C(=O)c3ccc(C(=O)NC4CCN(Cc5cc(F)cc(F)c5)CC4)nc3)CC2)cc1` [Compound 203, N-(1-(3,5-difluorobenzyl)piperidin-4-yl)-5-(4-(4-(methylsulfonyl)phenoxy)piperidine-1-carbonyl)picolinamide] gave a pEC50 of over 6.30.

As for `COc1ccc(CN2CCC(NC(=O)c3ccc(C(=O)N4CCC(C(=O)c5ccc(S(C)(=O)=O)cc5)CC4)nc3)CC2)cc1` [Compound 223, N-(1-(4-methoxybenzyl)piperidin-4-yl)-6-(4-(4-(methylsulfonyl)benzoyl)piperidine-1-carbonyl)nicotinamide], the pEC50 was 5.30 to 6.00.

In the case of `N#Cc1ccc(CN2CCC(NC(=O)c3ccc(C(=O)N4CCC(C(=O)c5ccc(N=[N+]=[N-])cc5)CC4)nc3)CC2)cc1` [Compound 240, 6-(4-(4-azidobenzoyl)piperidine-1-carbonyl)-N-(1-(4-cyanobenzyl)piperidin-4-yl)nicotinamide], the pEC50 was over 6.30.

Take `CS(=O)(=O)c1ccc(OC2CCN(C(=O)c3ccc(C(=O)NC4CCN(Cc5ccc(C#N)cc5)CC4)nn3)CC2)cc1` [Compound 399, N-(1-(4-cyanobenzyl)piperidin-4-yl)-6-(4-(4-(methylsulfonyl)phenoxy)piperidine-1-carbonyl)pyridazine-3-carboxamide]: the pEC50 is over 6.30.

For `CS(=O)(=O)c1ccc(C(=O)C2CCN(C(=O)c3ccc(C(=O)N[C@@H]4CCN(Cc5ccc(C#N)cc5)C[C@H]4F)nc3)CC2)cc1` (relative stereo) [Compound 252, N-((trans)-1-(4-cyanobenzyl)-3-fluoropiperidin-4-yl)-5-(4-(4-(methylsulfonyl)benzoyl)piperidine-1-carbonyl)picolinamide], the pEC50 was 6.00 to 6.30.

The compound `N#Cc1ccc(OC2CN(C(=O)c3ccc(C(=O)NC4CCN(Cc5cc(F)cc(F)c5)CC4)nc3)C2)cc1` [Compound 313, 5-(3-(4-cyanophenoxy)azetidine-1-carbonyl)-N-(1-(3,5-difluorobenzyl)piperidin-4-yl)picolinamide] showed a pEC50 of over 6.30.

`N#Cc1ccc(-c2nnc3n2CCN(C(=O)c2ccc(C(=O)NC4CCN(Cc5cc(F)cc(F)c5)CC4)nc2)C3)cc1` [Compound 314, 5-(3-(4-cyanophenyl)-5,6,7,8-tetrahydro-[1,2,4]triazolo[4,3-a]pyrazine-7-carbonyl)-N-(1-(3,5-difluorobenzyl)piperidin-4-yl)picolinamide] had a pEC50 of under 5.00.

In the case of `COc1ccc(C(=O)C2CCN(C(=O)c3ccc(C(=O)NC4CCN(Cc5cc(F)cc(F)c5)CC4)nc3)CC2)cc1` [Compound 287, N-(1-(3,5-difluorobenzyl)piperidin-4-yl)-5-(4-(4-methoxybenzoyl)piperidine-1-carbonyl)picolinamide], the negative-log EC50 (pEC50) is over 6.30.

The compound `CN1CCN(c2ccc(C(=O)C3CCN(C(=O)c4ccc(C(=O)NC5CCN(Cc6ccc(C#N)cc6)CC5)cn4)CC3)cc2)CC1` [Compound 243, N-(1-(4-cyanobenzyl)piperidin-4-yl)-6-(4-(4-(4-methylpiperazin-1-yl)benzoyl)piperidine-1-carbonyl)nicotinamide] had a negative-log EC50 (pEC50) of over 6.30.

The compound `CS(=O)(=O)c1ccc(OC2CCN(C(=O)c3ccc(C(=O)Nc4ccc(Oc5ccc(F)cc5)nc4)cn3)CC2)cc1` [Compound 235, N-(6-(4-fluorophenoxy)pyridin-3-yl)-6-(4-(4-(methylsulfonyl)phenoxy)piperidine-1-carbonyl)nicotinamide] had a pEC50 of over 6.30.

`COc1ccc(C(=O)C2CCN(C(=O)c3cnc(C(=O)Nc4ccc(Oc5ccc(F)cc5)nc4)cn3)CC2)cc1` [Compound 204, N-(6-(4-fluorophenoxy)pyridin-3-yl)-5-(4-(4-methoxybenzoyl)piperidine-1-carbonyl)pyrazine-2-carboxamide] had a negative-log EC50 (pEC50) of over 6.30.

Compound `O=C(c1ccc(N2CCC(Oc3ccc(C(F)(F)F)cc3)CC2)nc1)N1CCN(Cc2ccc(F)cc2)CC1` [Compound 187, (4-(4-fluorobenzyl)piperazin-1-yl)(6-(4-(4-(trifluoromethyl)phenoxy)piperidin-1-yl)pyridin-3-yl)methanone] gave a negative-log EC50 (pEC50) of 5.30 to 6.00.

With `COc1ccc(N2CCC(NC(=O)c3ccc(C(=O)N4CCC(Oc5ccc(C#N)cc5)CC4)nc3)CC2)cc1` [Compound 423, 6-(4-(4-cyanophenoxy)piperidine-1-carbonyl)-N-(1-(4-methoxyphenyl)piperidin-4-yl)nicotinamide], the negative logarithm of the EC50 (pEC50) is over 6.30.

`N#Cc1ccc(CN2CCC(NC(=O)c3ccc(C(=O)N4CCC(Oc5ccc(C#N)cc5)CC4)cn3)CC2)cc1` [Compound 135, N-(1-(4-cyanobenzyl)piperidin-4-yl)-5-(4-(4-cyanophenoxy)piperidine-1-carbonyl)picolinamide] gave a negative-log EC50 (pEC50) of over 6.30.

Take `O=C(NC1CCN(Cc2ccc(N3CCCC3)cc2)CC1)c1ccc(C(=O)N2CCC(C(=O)c3ccc(N4CCCC4)cc3)CC2)nc1` [Compound 444, 6-(4-(4-(pyrrolidin-1-yl)benzoyl)piperidine-1-carbonyl)-N-(1-(4-(pyrrolidin-1-yl)benzyl)piperidin-4-yl)nicotinamide]: the negative-log EC50 (pEC50) was over 6.30.

The compound `COc1cccc(CN2CCC(NC(=O)c3ccc(C(=O)N4CCC(Oc5ccc(S(C)(=O)=O)cc5)CC4)nc3)CC2)c1` [Compound 238, N-(1-(3-methoxybenzyl)piperidin-4-yl)-6-(4-(4-(methylsulfonyl)phenoxy)piperidine-1-carbonyl)nicotinamide] gave a pEC50 of 5.30 to 6.00.

For `O=C(NC1CCN(CC2CCCCC2)CC1)c1ccc(C(=O)N2CCN(Cc3ccc(F)cc3)CC2)cn1` [Compound 13, N-(1-(cyclohexylmethyl)piperidin-4-yl)-5-(4-(4-fluorobenzyl)piperazine-1-carbonyl)picolinamide], the pEC50 is 5.30 to 6.00.

`O=C(NC1CCN(Cc2ccccc2)CC1)c1ccc(C(=O)N2CCN(Cc3ccccc3)CC2)cn1` [Compound 72, 5-(4-benzylpiperazine-1-carbonyl)-N-(1-benzylpiperidin-4-yl)picolinamide] had a pEC50 of over 6.30.

`CS(=O)(=O)c1ccc(OC2CCN(C(=O)c3ccc(C(=O)Nc4ccc(Oc5ccc(C#N)cc5)nc4)cn3)CC2)cc1` [Compound 459, N-(6-(4-cyanophenoxy)pyridin-3-yl)-6-(4-(4-(methylsulfonyl)phenoxy)piperidine-1-carbonyl)nicotinamide]: the negative logarithm of the EC50 (pEC50) is over 6.30.

`N#Cc1ccc(CN2CCC(NC(=O)c3ccc(C(=O)N4CCN(S(=O)(=O)c5ccccc5)CC4)cn3)CC2)cc1` [Compound 82, N-(1-(4-cyanobenzyl)piperidin-4-yl)-5-(4-(phenylsulfonyl)piperazine-1-carbonyl)picolinamide]: the pEC50 was 6.00 to 6.30.

As to `COc1ccc(OC2CCN(C(=O)c3ccc(C(=O)NC4CCN(Cc5ccc(F)cc5)CC4)nc3)CC2)cc1` [Compound 183, N-(1-(4-fluorobenzyl)piperidin-4-yl)-5-(4-(4-methoxyphenoxy)piperidine-1-carbonyl)picolinamide], the pEC50 is over 6.30.

For the compound `N#Cc1ccc(CN2CCC(NC(=O)c3ccc(C(=O)N4CCN(c5ccc(C(F)(F)F)cc5)CC4)cn3)CC2)cc1` [Compound 339, N-(1-(4-cyanobenzyl)piperidin-4-yl)-5-(4-(4-(trifluoromethyl)phenyl)piperazine-1-carbonyl)picolinamide], the negative logarithm of the EC50 (pEC50) is over 6.30.

For `N#Cc1ccc(CN2CCC3(CCN(C(=O)c4ccc(C(=O)N5CCN(Cc6ccc(F)cc6)CC5)cn4)CC3)C2)cc1` [Compound 15, 4-((8-(5-(4-(4-fluorobenzyl)piperazine-1-carbonyl)picolinoyl)-2,8-diazaspiro[4.5]decan-2-yl)methyl)benzonitrile], the pEC50 was 5.30 to 6.00.

Compound `N#Cc1ccc(CN2CCC(NC(=O)c3cnc(C(=O)N4CCC(C(=O)c5ccc(N6CCCC6)cc5)CC4)cn3)CC2)cc1` [Compound 219, N-(1-(4-cyanobenzyl)piperidin-4-yl)-5-(4-(4-(pyrrolidin-1-yl)benzoyl)piperidine-1-carbonyl)pyrazine-2-carboxamide] showed a pEC50 of over 6.30.

Compound `N#Cc1ccc(CN2CCC(NC(=O)c3ccc(N4CCC(Oc5ccc(C#N)cc5)CC4)nn3)CC2)cc1` [Compound 351, N-(1-(4-cyanobenzyl)piperidin-4-yl)-6-(4-(4-cyanophenoxy)piperidin-1-yl)pyridazine-3-carboxamide] had a pEC50 of over 6.30.

As to `COc1ccc(CN2CCC(NC(=O)c3ccc(C(=O)N4CCC(C(=O)c5ccc(N6CCCC6)cc5)CC4)nc3)CC2)cc1F` [Compound 443, N-(1-(3-fluoro-4-methoxybenzyl)piperidin-4-yl)-6-(4-(4-(pyrrolidin-1-yl)benzoyl)piperidine-1-carbonyl)nicotinamide], the negative logarithm of the EC50 (pEC50) was over 6.30.

`O=C(NC1CCN(Cc2ccc(OC(F)(F)F)cc2)CC1)c1ccc(C(=O)N2CCC(Oc3ccc(C(=O)C4CC4)cc3)CC2)nc1` [Compound 455, 6-(4-(4-(cyclopropanecarbonyl)phenoxy)piperidine-1-carbonyl)-N-(1-(4-(trifluoromethoxy)benzyl)piperidin-4-yl)nicotinamide] showed a pEC50 of over 6.30.

For the compound `N#Cc1ccc(CN2CCC(NC(=O)c3ccc(C(=O)N4CCC(C(=O)c5ccc(F)cc5F)CC4)cn3)CC2)cc1` [Compound 271, N-(1-(4-cyanobenzyl)piperidin-4-yl)-5-(4-(2,4-difluorobenzoyl)piperidine-1-carbonyl)picolinamide], the negative logarithm of the EC50 (pEC50) was over 6.30.

As to `CS(=O)(=O)c1ccc(C(=O)C2CCN(C(=O)c3ccc(C(=O)Nc4ccc(Oc5ccc(F)cc5)nc4)nc3)CC2)cc1` [Compound 232, N-(6-(4-fluorophenoxy)pyridin-3-yl)-5-(4-(4-(methylsulfonyl)benzoyl)piperidine-1-carbonyl)picolinamide], the pEC50 is over 6.30.

Broadly, the pEC50 is −log10 of the EC50, conventionally taken in molar units.
